Data from PMC6015222, “Targeting Phosphopeptide Recognition by the Human BRCA1 Tandem BRCT Domain to Interrupt BRCA1-Dependent Signaling” (Cell Chemical Biology, 2018).
Several values for one entry are separate records, joined by “and”; a condition that tells them apart may be missing. Identical values can stand only once. Non-standard residues stand in square brackets, D forms with d. TAMRA = tetramethylrhodamine label; pS = N[C@@H](COP(=O)(O)O)C(=O)O

Tests used:
BRCA1 tBRCT [1] = target: T1, BRCA1 tBRCT (Homo sapiens, UniProt P38398); experiment: Competitive MST: inhibition of BACH1 phosphopeptide binding to BRCA1 tBRCT; conditions: for activity in competitive MST, in words / IC50: BACH1 phosphopeptide vs BRCA1 tBRCT; for IC50: MST, mean ± SD of three experiments, NB, no binding
T1 construct: BRCA1 tBRCT residues 1646-1859; made in house; host or cells: E. coli BL21(DE3)
T1 sequence (P38398 1646-1859): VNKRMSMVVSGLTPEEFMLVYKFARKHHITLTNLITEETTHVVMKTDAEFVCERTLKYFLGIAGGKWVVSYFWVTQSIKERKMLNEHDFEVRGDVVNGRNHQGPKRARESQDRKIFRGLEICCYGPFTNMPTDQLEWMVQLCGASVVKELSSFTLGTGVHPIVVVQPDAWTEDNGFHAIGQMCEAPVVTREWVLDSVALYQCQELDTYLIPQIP
Experimental: Protein domains used in the assay were labeled with NT-647-NHS fluorescent dye using the Monolith NT™ Protein Labeling Kit (NanoTemper Technologies). Assays were carried out in 20mM Tris buffer, pH 7.4, with 200mM NaCl, 0.05% Tween-20 and 2mM DTT. For the direct binding assay, 10μl of labeled protein at a final concentration of 20nM was mixed with 10μl of test compound and incubated on ice for 10 min. For the competitive assay, 10μl of labeled protein at a final concentration of 20nM was mixed with 2μM cognate peptide substrate at the EC80 concentration determined by prior titration using a 16-point serial dilution by direct-binding MST. For both assays, samples prepared as above were centrifuged at 15000 rpm at 4°C for 10 min and 4μl of the supernatant was loaded into premium glass capillaries (NanoTemper Technologies). MST analysis was performed at MST power of 40% and LED power of 80%, at 22°C temperature using a Monolith NT.115 (NanoTemper Technologies). An initial “Capillary Scan” was performed to scan for fluorescence across the length of the capillary tray to determine the exact position of each capillary before the MST measurement was started. Test compounds were assayed at 16 different concentrations by serial dilution, and data were analysed using NanoTemper analysis software. Kd values were determined using “T-jump + Thermophoresis” settings. The change in thermophoresis between different experimental conditions was expressed as the change in the normalized fluorescence (ΔFnorm), which is defined as Fhot/Fcold (F-values correspond to average fluorescence values between defined areas in the curve under steady-state conditions under control (Fcold) or experimental (Fhot) conditions. Titration of the non-fluorescent ligand causes a gradual change in thermophoresis, which is plotted as ΔFnorm to yield a binding curve, which was then fitted to derive binding constants.

BRCA1 tBRCT [2] = target: T1, BRCA1 tBRCT; experiment: AlphaScreen assay: displacement of cognate biotinylated phosphopeptide from BRCA1 tBRCT; conditions: 10-point dose response, read-out: IC50, inhibition of binding of cognate phosphopeptide to BRCA1 tBRCT
Experimental: We tested 6x-Histidine-tagged BRCA1 tBRCT, TOPBP1 tBRCT 7/8 or GRB2 SH2, and their cognate biotinylated peptide substrates. Initial checkerboard titrations were carried out to determine the optimal concentration of protein and peptide for each screen. Assays were conducted in Costar 96-well flat bottom white polystyrene plates using assay buffer (20mM Tris buffer pH 7.4, 200mM NaCl, 0.05% Tween-20, 2mM DTT). 5x-working concentrations of the reagents were dispensed in 10μl each in the order: 6x-Histidine tagged protein, biotinylated peptide, test compound. Plates were incubated at room temperature for 20 min and 10 μl each of nickel chelate AlphaLISA® acceptor beads and AlphaScreen® Streptavidin donor beads (both from Perkin Elmer) at a final concentration of 20 μg/ml were added. Plates were covered with adhesive seals and incubated in the dark for 1 h at 25°C. The AlphaScreen® signal was read using TECAN infinite M1000 Pro microplate reader at excitation wavelength 680nm and emission wavelength 520-620nm. 1% DMSO controls were run in parallel, and used to calculate percent inhibition. A 10-point dose response was performed in triplicate to determine IC50 values for each compound.

[3] = Solubility in aqueous buffers; assay type: physicochemical
[4] = system: BRCT domain of poly-ADP ribose polymerase; set-up: method as in Na et al., 2015; conditions: ref Na et al., 2015; cited from earlier work
[5] = target: T2, human BRCA1 tandem BRCT domain (residues 1646-1859) (human, UniProt P38398-1 1646-1859, NT-647-NHS fluorescent dye (in the MST assays only)); experiment: fluorescence polarisation; 75 nM BRCA1 tBRCT and 10 nM TAMRA-labelled BACH1 peptide, with compound at 125 uM; 20 mM Tris pH 7.4, 200 mM NaCl, 0.05% Tween-20, 2 mM DTT; room temperature; conditions: both partners purified
T2 construct: BRCA1, human, tandem BRCT domain, residues 1646-1859; Synthetic gene in pET28a, codon optimised for E. coli; No removal of the His tag is described; also called BRCA1 tBRCT; 6x His-BRCA1 tBRCT; source: E. coli BL21(DE3), purified (HisTrap HP, Superdex-75 gel filtration); not shown: His6, N-terminal, kept
T2 sequence (P38398 1646-1859): as above

| Molecule | activity in competitive MST, in words (BRCA1 tBRCT [1]) | IC50 (BRCA1 tBRCT [1]) | further results |
| --- | --- | --- | --- |
| CC(C)c1nc2ccc(C(=O)N3CCN(Cc4ccccc4F)CC3)cc2[nH]1 [CCBT2009, (4-(2-fluorobenzyl)piperazin-1-yl) (2-isopropyl-1H-benzo[d]imidazol-6-yl) methanone] | abrogated activity |  |  |
| Cc1nc2cc(C(=O)N3CCN(Cc4ccccc4F)C[C@H]3C(C)C)ccc2[nH]1 [CCBT2905, (R)-(4-(2-fluorobenzyl)-2-isopropylpiperazin-1-yl)(2-methyl-1H-benzo[d]imidazol-5-yl)methanone] |  | 56 µM |  |
| O=C(c1ccc2[nH]c(N3CCOCC3)nc2c1)N1CCN(Cc2ccccc2F)CC1 [CCBT2084, (4-(2-fluorobenzyl)piperazin-1-yl)(2-morpholino-1H-benzo[d]imidazol-5-yl) methanone] | abrogated activity |  |  |
| O=C(c1ccc2[nH]c(-c3ccncc3)nc2c1)N1CCN(Cc2ccccc2F)CC1 [CCBT2082, (4-(2-fluorobenzyl)piperazin-1-yl)(2-(pyridin-4-yl)-1H-benzo[d]imidazol-5-yl)methanone] |  | 0.315 ± 0.18 µM | decrease in activity relative to Bractoppin (BRCA1 tBRCT [1]; competitive MST): 5 fold |
| Cc1nc2cc(CN3CCN(Cc4ccccc4F)CC3)ccc2[nH]1 [CCBT2908, 5-((4-(2-fluorobenzyl)piperazin-1-yl)methyl)-2-methyl-1H-benzo[d]imidazole] | inactive |  |  |
| O=C(c1ccc2nc(-c3ccccc3)[nH]c2c1)N1CCN(Cc2ccc(O)cc2)CC1 [CCBT2106, (4-(4-hydroxybenzyl)piperazin-1-yl)(2-phenyl-1H-benzo[d]imidazole-6-yl)methanone] |  | 3.6 µM |  |
| Cc1nc2cc(C(=O)N3CCN(Cc4ccccc4F)CC3)ccc2[nH]1 [CCBT2907, (4-(2-fluorobenzyl)piperazin-1-yl)(2-methyl-1H-benzo[d]imidazol-5-yl)methanone] |  | > 53 µM and ~53 µM |  |
| Cc1ccc(CN2CCN(C(=O)c3ccc4nc(-c5ccccc5)[nH]c4c3)CC2)cc1 [CCBT2107, (4-(4-methylbenzyl)piperazin-1-yl)(2-phenyl-1H-benzo[d]imidazol-6-yl)methanone] |  | 0.3 µM |  |
| CC(C)CN1CCN(C(=O)c2ccc3[nH]c(-c4ccccc4)nc3c2)CC1 [CCBT2047, (4-isobutylpiperazin-1-yl)(2-phenyl-1H-benzo[d]imidazol-5-yl) methanone] | abolishes activity |  |  |
| Cc1nc2cc(C(=O)N3CCN(Cc4ccccc4F)C[C@@H]3C(C)C)ccc2[nH]1 [CCBT2906] |  | 1.7 µM |  |
| Cc1nc2cc(C(=O)N3CCN(Cc4ccccc4F)CC3C(C)C)ccc2[nH]1 (stereo not drawn) [CCBT002, (4-(2-fluorobenzyl)-2-isopropylpiperazin-1-yl) (2-methyl-1H-benzo[d]imidazol-5-yl)methanone] |  |  | IC50 (BRCA1 tBRCT [2]): 47.3 µM; solubility in aqueous buffers [3]: limited solubility |
| Cc1cc2c(C(C)C)c(O)c(O)c(C=O)c2c(O)c1-c1c(C)cc2c(C(C)C)c(O)c(O)c(C=O)c2c1O [Gossypol] |  |  | binding to the BRCT domain of poly-ADP ribose polymerase [4]: reported to bind |
| {TAMRA}-GGSRST[pS]PTFNK-NH2 (two added glycines before the BACH1 stretch; stretch around the Ser990 phosphosite; the helicase BRIP1 is meant; also called TAMRA-labeled BACH1 peptide; source: synthetic peptide, bought: Designer Bioscience) [TAMRA-labelled phosphopeptide from BACH1 (TAMRA_GGSRSTpSPTFNK-NH2)] |  |  | binding result [5]: binds |
